The target of the experiment is T1, human vasopressin V1a receptor subtype (Homo sapiens, UniProt P37288).
T1 construct: host or cells: CHO cells, stably transfected (pZeoSV vector for the Thibonnier line)
As to the kind of experiment: Vasopressin binding in CHO cell membranes expressing human vasopressin V1a subtype receptors ([3H]Manning ligand radioligand binding). The following applies: 100 nM. The method in brief: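 Membranes from CHO cells expressing human V1a, 25–50 μg protein/well, incubated 60 min at room temperature with [3H]Manning ligand (20 μL of 8 nM stock) in 50 mM Tris-HCl pH 7.4 with BSA, MgCl2 and protease inhibitors. Filtration then scintillation counting; reported as % inhibition or IC50 (nM).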

T1 sequence (P37288 whole entry): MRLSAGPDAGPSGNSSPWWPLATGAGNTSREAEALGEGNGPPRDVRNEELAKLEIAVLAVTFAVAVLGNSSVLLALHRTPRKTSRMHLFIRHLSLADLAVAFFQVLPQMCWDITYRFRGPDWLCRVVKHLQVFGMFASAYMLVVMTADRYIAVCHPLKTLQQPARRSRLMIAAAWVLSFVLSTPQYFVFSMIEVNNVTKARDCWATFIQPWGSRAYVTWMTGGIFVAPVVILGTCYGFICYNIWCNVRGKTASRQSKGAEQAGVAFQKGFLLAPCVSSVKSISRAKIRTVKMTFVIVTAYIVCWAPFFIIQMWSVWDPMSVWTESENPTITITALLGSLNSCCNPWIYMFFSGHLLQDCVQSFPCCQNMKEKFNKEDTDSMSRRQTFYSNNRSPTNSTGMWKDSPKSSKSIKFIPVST

A word on the inhibition: it is the percentage by which the read-out fell short of the control. Low values mean little suppression, high ones strong suppression. For `Cc1ccccc1-c1ccc(C(=O)N2Cc3ccc(C(=O)N4CCN(c5ccccn5)CC4)n3Cc3ccccc32)cc1C` [Example 76, {10-[(2,2′-Dimethyl-[1,1′-biphenyl]-4-yl)carbonyl]-10,11-dihydro-5H-pyrrolo[2,1-c][1,4]benzodiazepin-3-yl}[4-(2-pyridinyl)-1-piperazinyl]methanone], the inhibition at 0.1 µM is 11%.

For the origin of these results see US7064120B2, “Tricyclic pyridyl carboxamides and derivatives thereof tocolytic oxytocin receptor antagonists” (Wyeth, priority 2001, dated 2006).
